Paper PMC2376334, “Penetration of capecitabine and its metabolites into malignant and healthy tissues of patients with advanced breast cancer” (British Journal of Cancer, 2003)

Experiments:
[1] = Microdialysis pharmacokinetics in the interstitium of a cutaneous metastasis (tumour)
Excerpt: (§1) Patients were in a supine position throughout the study period. Commercially available microdialysis probes (CMA 10®, CMA, Stockholm, Sweden) were inserted into a suitable cutaneous metastasis. A second microdialysis probe was inserted horizontally into the subcutaneous connective tissue of one thigh. The surface of the disinfected skin was punctured according to a previously described procedure ([Müller et al, 1995]). The position of the probes in the metastasis was established by ultrasound scanning. Subsequently, the microdialysis system was connected and perfused with Ringer's solution at a flow rate of 1.5 μl min^−1 by a microinfusion-pump (Precidor®; Infors-AG, Basel, Switzerland). After a 30 min baseline sampling period, probe calibration for capecitabine and FU was performed for a period of 30 min according to a retrodialysis procedure ([Stahle et al, 1991]). After a wash-out period of 30 min, the study drug was administered in the scheduled dose. Sampling was continued at 30-min intervals up to 300 min.
(§2) Sample collection and analysis of microdialysates and blood samples by capillary electrophoresis were performed according to a validated method with minor modifications ([Mader et al, 1998]). After thawing, 100 μl plasma were centrifuged through Centrisart-C4 filter units with a nominal molecular weight cutoff=10 000 (Sartorius, Germany) for 30 min at 37°C to separate free drug from protein-bound drug. […] Capecitabine, DFCR, DFUR (supplied by Roche, Basel, Switzerland), and FU (Sigma, St Louis, MO, USA) were evaluated in 200 mM tetraborate buffer (pH=9.5) monitoring the absorbance at three different wavelengths (capecitabine: 297 nm, DFCR: 282 nm, DFUR and FU: 268 nm).
(§3) To obtain absolute interstitial concentrations from dialysate concentrations, microdialysis probes were calibrated for in vivo recovery rates according to the retrodialysis method ([Müller et al, 1995],[1997]). The principle of this method relies on the assumption that the diffusion process is quantitatively equal in both directions across the semipermeable membrane. Therefore, the study drug is added to the perfusate and the disappearance rate through the membrane is taken as the in vivo recovery. The in vivo recovery value is calculated as: […]
(§4) Absolute interstitial fluid concentrations of free drug were calculated from dialysate concentrations by the following equation: […]
(§5) The following pharmacokinetic parameters were determined: AUC calculated using the trapezoidal rule, maximum concentration (cmax), time to maximum concentration (tmax), and elimination half-life (t1/2). For statistical calculations, pharmacokinetic parameters derived from different compartments were compared using the paired Wilcoxon test.

[2] = Plasma pharmacokinetics of free drug after oral capecitabine in breast cancer patients; type: in vivo, human; conditions: for Cmax / Tmax / half-life / AUC(0-t) / concentration at 1 day: human, plasma; for AUC(0-t): read-out: AUC0−5 h; for concentration at 1 day: one patient, day 1, slow absorption kinetics, read-out: plasma concentrations; for plasma concentrations: same patient, end of the first cycle (days 12–14)
Description: In parallel, a plastic cannula was inserted into an antecubital vein to monitor blood concentrations of the study drug at 30-min intervals. A total of 10 capecitabine-naive patients were studied after the first morning dose of day 1. Three of them were monitored once again between days 12 and 14 of cycle 1.
(§6) After thawing, 100 μl plasma were centrifuged through Centrisart-C4 filter units with a nominal molecular weight cutoff=10 000 (Sartorius, Germany) for 30 min at 37°C to separate free drug from protein-bound drug. […] Capecitabine, DFCR, DFUR (supplied by Roche, Basel, Switzerland), and FU (Sigma, St Louis, MO, USA) were evaluated in 200 mM tetraborate buffer (pH=9.5) monitoring the absorbance at three different wavelengths (capecitabine: 297 nm, DFCR: 282 nm, DFUR and FU: 268 nm). […] The intra-assay coefficient of variation for this method ranged from 3.4 to 6.9% with an interassay coefficient of variation ranging from 6.7 to 10.4%.

[3] = In vitro plasma protein binding (ultrafiltration); type: in vitro ADME
Description: as §6
The plasma protein binding of DFCR, DFUR, and FU was <4% up to 100 μg substance (ml plasma)^−1. In contrast, the plasma protein binding of capecitabine was determined to be 60% by in vitro binding experiments (data not shown).

[4] = Microdialysis pharmacokinetics in the interstitium of subcutaneous connective tissue; conditions: human; for AUC(0-t) / Cmax / Tmax / half-life: po, 1250 mg
Excerpt: as §1, §2, §3, §4, §5

[5] = design: method as in Mackean et al, 1998; conditions: most slowly eliminating compound; ref Mackean et al, 1998; cited from earlier work
[6] = after capecitabine, cited from earlier work
[7] = median of single-patient ratios, n=10
[8] = po, free drug, median, n=10, 1250 mg capecitabine m^−2 orally, day 1, read-out: cmax
[9] = po, median, n=10, 1250 mg capecitabine m^−2 orally
[10] = po, median, n=10, 1250 mg capecitabine m^−2 orally, read-out: tmax
[11] = oral, 1250 mg m^−2, Ratio of AUC0−5 h s.c. Tissue/plasma, median of single-patient ratios, n=10
[12] = up to 100 μg substance (ml plasma)^−1
[13] = tissue biopsies, colorectal tumours, ref Schüller et al, 2000

Kp ([1]; human, oral, 1250 mg m^−2) | Cmax ([1]; human, po, 1250 mg) | Tmax ([1]; human, po, 1250 mg) | half-life ([1]; human, po, 1250 mg) | Ratio of AUC0−5 h Tumour/s.c. tissue [1, 7] | Cmax [2, 8] | half-life [2, 9] | AUC(0-t) [2, 9] | Tmax [2, 10] | Kp [4, 11] | AUC(0-t) [4] | Cmax [4] | Tmax [4] | half-life [4] | concentration at 1 day ([2]; oral, 1250 mg m^−2) | plasma concentrations [2] | fraction unbound [3, 12] | Structure (SMILES) | further results
1.76 | 2660 ng/mL | 2.5 h | 0.5 h | 1.11 | 2340 ng/mL | 0.5 h | 2360 ng·h/mL | 1.75 h | 1.31 | 3160 ng·h/mL | 2700 ng/mL | 2.25 h | 0.59 h |  |  |  | CCCCCOC(=O)Nc1nc(=O)n([C@@H]2O[C@H](C)[C@@H](O)[C@H]2O)cc1F [Capecitabine] | Cmax ([2]; oral, 1250 mg m^−2, capecitabine-naive patients, range between patients, read-out: range of cmax): 640 to 15400 ng/mL; Tmax ([2]; oral, 1250 mg m^−2, capecitabine-naive patients, range between patients, read-out: range of tmax): 1 to 3 h; fraction unbound ([3]; plasma, in vitro binding experiments (data not shown)): 0.4; Kp ([4]; oral, 1250 mg m^−2, ratio AUCconnective tissue/AUCplasma, subgroup of four patients): > 2
0.67 | 4220 ng/mL | 2.5 h | 0.87 h | 1.12 | 6530 ng/mL | 0.86 h | 11300 ng·h/mL | 1.75 h | 0.67 | 8400 ng·h/mL | 4370 ng/mL | 2.5 h | 0.76 h | ≤ 4000 ng/mL | about 10 μg ml^−1 | > 0.96 | C[C@H]1O[C@@H](n2cc(F)c(N)nc2=O)[C@H](O)[C@@H]1O [DFCR, 5′-deoxy-5-fluorocytidine] | plasma half-life [5]: 1.22 h
 |  |  |  |  | 3650 ng/mL | 0.8 h | 6420 ng·h/mL | 2 h |  |  |  |  |  | ≤ 4000 ng/mL | about 10 μg ml^−1 | > 0.96 | C[C@H]1O[C@@H](n2cc(F)c(=O)[nH]c2=O)[C@H](O)[C@@H]1O [DFUR, 5′-deoxy-5-fluorouridine] | Kp ([1]; human, in vivo): 0.53; Ratio of AUC0−5 h Tumour/s.c. tissue ([1]; human, in vivo): 1.20; AUC0−5 h ([1]; human, in vivo, po, 1250 mg): 3.35 μg ml^ 1 h; Kp ([4]; in vivo, Ratio of AUC0−5 h s.c. Tissue/plasma): 0.44; AUC(0-t) ([4]; in vivo): 2750 ng·h/mL
0.66 | 260 ng/mL | 3 h |  | 0.66 | 250 ng/mL |  | 290 ng·h/mL | 2.5 h | 1.53 | 360 ng·h/mL | 330 ng/mL | 2 h |  |  |  | > 0.96 | O=c1[nH]cc(F)c(=O)[nH]1 [FU, 5-fluorouracil, reference compound] | detection in tumour interstitium ([1]; one patient, day 1): not observed; mean tumour/plasma ratio ([6]; patients with colorectal tumours, ref Schüller et al (2000)): 21; median ratio tumour/healthy tissue of FU concentration [6, 13]: 2.9; median tumour/plasma ratio of FU concentration [6, 13]: 16.6; FU levels in plasma ([2]; rarely exceeding, oral capecitabine regimen): ≤ 0.5 µg/mL
